The structures appear in SMILES notation.

The target of this assay is T1, rat NaP2b (SLC34A2) (Rattus norvegicus, UniProt Q9JJ09).
T1 construct: host or cells: HEK293
T1 sequence (Q9JJ09 1-695): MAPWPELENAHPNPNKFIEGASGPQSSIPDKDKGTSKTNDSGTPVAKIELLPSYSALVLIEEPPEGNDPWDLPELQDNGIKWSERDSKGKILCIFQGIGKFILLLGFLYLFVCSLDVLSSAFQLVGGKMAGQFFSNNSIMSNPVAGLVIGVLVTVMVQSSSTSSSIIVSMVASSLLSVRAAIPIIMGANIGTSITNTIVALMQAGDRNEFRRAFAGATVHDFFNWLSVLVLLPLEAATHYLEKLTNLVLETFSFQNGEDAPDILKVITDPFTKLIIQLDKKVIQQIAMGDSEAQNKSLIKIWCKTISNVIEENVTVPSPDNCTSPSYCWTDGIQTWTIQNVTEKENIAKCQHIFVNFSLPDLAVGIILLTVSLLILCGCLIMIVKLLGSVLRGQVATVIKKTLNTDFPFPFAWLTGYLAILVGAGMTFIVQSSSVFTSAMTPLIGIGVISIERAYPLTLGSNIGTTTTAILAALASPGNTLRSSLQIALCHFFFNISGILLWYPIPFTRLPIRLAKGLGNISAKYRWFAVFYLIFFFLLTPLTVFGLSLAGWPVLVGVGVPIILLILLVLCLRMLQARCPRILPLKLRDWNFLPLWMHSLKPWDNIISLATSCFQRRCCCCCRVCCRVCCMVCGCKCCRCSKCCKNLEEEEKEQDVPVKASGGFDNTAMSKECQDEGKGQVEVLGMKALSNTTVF
Nature of the assay: Inhibition of NaP2b-mediated Pi (33P) uptake in transfected HEK293 cells, rat NaP2b. In kind it is cell-based. The following applies: 33P Pi uptake, 0.1 mM phosphate, value given as pIC50 range. Summed up:
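The cells transiently expressed NaP2b after Lipofectamine transfection. Each compound was run in duplicate over twelve concentrations, 0.1 nM–30 uM.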
As usually defined, the IC50 is the point on the concentration scale where inhibition reaches its midpoint. Low readings indicate higher potency, high ones lower potency. `O=C(O)CCSCc1cccc(C(=O)Nc2ccc(N3CCCCC3)cc2-c2cc(C(=O)NCC3CCCCC3)ccn2)c1` [Example 1.7] showed an IC50 of 1 to 7.94 µM.

As to `O=C(O)CCCc1cccc(SCc2cccc(C(=O)Nc3ccc(N4CCCCC4)cc3-c3cc(C(=O)NCc4cccc(C(F)(F)F)c4)ccn3)c2)c1` [Example 8.19], the 50% inhibitory concentration (IC50) is 1 to 7.94 µM.

As for `CN(Cc1cccnc1)C(=O)c1cccc(C(=O)Nc2ccc(N3CCCCC3)cc2-c2cc(C(=O)NCc3cccc(C(F)(F)F)c3)ccn2)c1` [Example 4.27], the concentration for half-maximal inhibition (IC50) was 1 to 7.94 µM.

`COCCNC(=O)N1CCN(CCN(C)C(=O)c2cccc(C(=O)Nc3ccc(N4CCCCC4)cc3-c3cc(C(=O)NCc4cccc(C(F)(F)F)c4)ccn3)c2)CC1` [Example 207, N1-(2-(4-((2-methoxyethyl)carbamoyl)piperazin-1-yl)ethyl)-N3-(2-(4-((3-(trifluoromethyl)benzyl)carbamoyl)pyridin-2-yl)-4-(piperidin-1-yl)phenyl)-N1-methylisophthalamide] gave a 50% inhibitory concentration (IC50) of 10 to 31.6 µM.

Consider `O=C(O)CCSCc1cccc(C(=O)Nc2ccc(N3CCCCC3)cc2-c2cc(C(=O)c3cccc(C(F)(F)F)c3)ccn2)c1` [Example 5.2, 3-((3-((4-(piperidin-1-yl)-2-(4-(3-(trifluoromethyl)benzoyl)pyridin-2-yl)phenyl)carbamoyl)benzyl)thio)propanoic acid], for which the concentration for half-maximal inhibition (IC50) was 10 to 31.6 µM.

As to `O=C(O)CCSCc1cccc(C(=O)Nc2ccc(N3CCCCC3)cc2-c2cc(C(=O)NCc3ccc(OC(F)(F)F)cc3)ccn2)c1` [Example 1.44], the IC50 was 1 to 7.94 µM.

`O=C(O)CCSCc1cccc(C(=O)Nc2ccc(N3CCCCC3)cc2-c2cc(C(=O)NCc3ccc(OC(F)(F)F)c(F)c3)ccn2)c1` [Example 1.26] showed an IC50 of 1 to 7.94 µM.

`CN1CCC(N(C)C(=O)c2cccc(SCc3cccc(C(=O)Nc4ccc(N5CCCCC5)cc4-c4cc(C(=O)NCc5cccc(C(F)(F)F)c5)ccn4)c3)c2)CC1` [Example 10.2]: the IC50 was 10 to 31.6 µM.

The compound `CC(NC(=O)c1ccnc(-c2cc(N3CCCCC3)ccc2NC(=O)c2cccc(CSCCC(=O)O)c2)c1)c1cccc(C(F)(F)F)c1` (centres unmarked) [Example 77, 3-(3-(4-(piperidin-1-yl)-2-(4-(1-(3-(trifluoromethyl)phenyl)ethylcarbamoyl)pyridin-2-yl)phenylcarbamoyl)benzylthio)propanoic acid] had a half-maximal inhibitory concentration (IC50) of 1 to 7.94 µM.

As to `O=C(O)CCc1ccc(SCc2cccc(C(=O)Nc3ccc(N4CCCCC4)cc3-c3cc(C(=O)NCc4cccc(C(F)(F)F)c4)ccn3)c2)cc1` [Example 8.8], the concentration for half-maximal inhibition (IC50) is < 1 µM.

For `CC(C)C(=O)NC(CSCc1cccc(C(=O)Nc2ccc(N3CCCCC3)cc2-c2cc(C(=O)NCc3cccc(C(F)(F)F)c3)ccn2)c1)C(=O)O` (centres unmarked) [Example 8.12], the IC50 is 10 to 31.6 µM.

Regarding `O=C(O)CCSCc1cccc(C(=O)Nc2ccc(Cl)cc2-c2cc(NCc3cccc(C(F)(F)F)c3)ncn2)c1` [Example 66, 3-((3-((4-Chloro-2-(6-((3-(trifluoromethyl)benzyl)amino)pyrimidin-4-yl)phenyl)carbamoyl)benzyl)thio)propanoic acid], the concentration for half-maximal inhibition (IC50) was 10 to 31.6 µM.

With `CN(CCOCCO)C(=O)c1cccc(C(=O)Nc2ccc(N3CCCCC3)cc2-c2cc(C(=O)NCc3cccc(C(F)(F)F)c3)ccn2)c1` [Example 4.3, N1-(2-(2-Hydroxyethoxy)ethyl)-N1-methyl-N3-(4-(piperidin-1-yl)-2-(4-((3-(trifluoromethyl)benzyl)carbamoyl)pyridin-2-yl)phenyl)isophthalamide], the IC50 was 1 to 7.94 µM.

Consider `O=C(O)CCSCc1cccc(C(=O)Nc2ccc(N3CCCCC3)cc2-c2cc(C(=O)NCc3ccc4c(c3)OCO4)ccn2)c1` [Example 1.23], for which the IC50 was 1 to 7.94 µM.

`Cc1cc(C(=O)NCc2cccc(C(F)(F)F)c2)cc(-c2cc(N3CCCCC3)ccc2NC(=O)c2cccc(CSCCC(=O)O)c2)n1` [Example 85] gave an IC50 of 1 to 7.94 µM.

Regarding `COCCOCCOCCOCCOCCOCCOCCN(C)C(=O)[C@@H]1CCCN1CCN(C)C(=O)c1cccc(C(=O)Nc2ccc(N3CCCCC3)cc2-c2cc(C(=O)N[C@H]3CCCc4ccccc43)ccn2)c1` [Example 198, N^1-(2-((S)-2-(2,5,8,11,14,17,20-heptaoxadocosan-22-yl(methyl)carbamoyl)pyrrolidin-1-yl)ethyl)-N^1-methyl-N^3-(4-(piperidin-1-yl)-2-(4-(((S)-1,2,3,4-tetrahydronaphthalen-1-yl)carbamoyl)pyridin-2-yl)phenyl)isophthalamide], the IC50 is 10 to 31.6 µM.

In turn, `O=C(O)CCSCc1cccc(C(=O)Nc2ccc(N3CCCCC3)cc2-c2cc(CNCc3cccc(C(F)(F)F)c3)ccn2)c1` [Example 7] gave a half-inhibitory concentration (IC50) of 10 to 31.6 µM.

As for `O=C(NCc1cccc(C(F)(F)F)c1)c1ccnc(-c2cc(N3CCCCC3)ccc2NC(=O)c2cccc(CSCCCS(=O)(=O)O)c2)c1` [Example 91], the half-inhibitory concentration (IC50) is 10 to 31.6 µM.

Consider `CCN(CC)c1ccc(NC(=O)c2cccc(CCCOCCOCCOCCOCCNC(=O)c3cccnc3)c2)c(-c2cc(C(=O)N[C@H]3CCCc4ccccc43)ccn2)c1` [Example 324], for which the IC50 was < 1 µM.

Turning to `CCCCN(C)c1ccc(NC(=O)c2cccc(C(=O)N(C)CCN3CCOCC3)c2)c(-c2cc(C(=O)NCc3cccc(C(F)(F)F)c3)ccn2)c1` [Example 127, N1-(4-(butyl(methyl)amino)-2-(4-(3-(trifluoromethyl)benzylcarbamoyl)pyridin-2-yl)phenyl)-N3-methyl-N3-(2-morpholinoethyl)isophthalamide], the IC50 is 10 to 31.6 µM.

In turn, `O=C(NCc1cccc(C(F)(F)F)c1)c1ccnc(-c2cc(N3CCCCC3)ccc2NC(=O)c2cccc(C(=O)N3CCC(N4CCOCC4)CC3)c2)c1` [Example 4.23] gave an IC50 of 10 to 31.6 µM.

Compound `CN(CCN1C[C@H](O)C[C@H]1C(=O)N(C)CCOCCOCCOCCC(=O)OC(C)(C)C)C(=O)c1cccc(C(=O)Nc2ccc(N3CCCCC3)cc2-c2cc(C(=O)N[C@H]3CCCc4ccccc43)ccn2)c1` [Example 241] showed a half-inhibitory concentration (IC50) of 1 to 7.94 µM.

Take `Cc1ccc(Nc2ccnc(-c3cc(N4CCCCC4)ccc3NC(=O)c3cccc(CSCCC(=O)O)c3)c2)cc1C` [Example 71, 3-((3-((2-(4-((3,4-Dimethylphenyl)amino)pyridin-2-yl)-4-(piperidin-1-yl)phenyl)carbamoyl)benzyl)thio)propanoic acid]: the half-inhibitory concentration (IC50) was 10 to 31.6 µM.

Consider `O=C(O)CCSCc1cccc(C(=O)Nc2ccc(N3CCCCC3)cc2-c2cc(C(=O)NCc3ccc(N4CCOCC4)cc3)ccn2)c1` [Example 78, 3-(3-(2-(4-(4-Morpholinobenzylcarbamoyl)pyridin-2-yl)-4-(piperidin-1-yl)-phenylcarbamoyl)benzylthio) propanoic acid], for which the IC50 is 10 to 31.6 µM.

For `O=C(O)c1cccc(CSc2cccc(C(=O)Nc3ccc(N4CCCCC4)cc3-c3cc(C(=O)NCc4cccc(C(F)(F)F)c4)ccn3)c2)c1` [Example 186, 3-((3-(4-(piperidin-1-yl)-2-(4-(3-(trifluoromethyl)benzylcarbamoyl)pyridin-2-yl)phenylcarbamoyl)phenylthio)methyl)benzoic acid], the IC50 is 1 to 7.94 µM.

`O=C(O)CCSCc1cccc(C(=O)Nc2ccc(N3CCCCC3)cc2-c2cc(C(=O)NCc3ccc(N4CCCCC4)cc3)ccn2)c1` [Example 1.14] gave an IC50 of 1 to 7.94 µM.

Turning to `CN(CCOCCOCCOCCC(=O)O)C(=O)c1cccc(SCc2cccc(C(=O)Nc3ccc(N4CCCCC4)cc3-c3cc(C(=O)NCc4cccc(C(F)(F)F)c4)ccn3)c2)c1` [Example 135, 3-(2-(2-(2-(N-methyl-3-(3-(4-(piperidin-1-yl)-2-(4-(3-(trifluoromethyl)benzylcarbamoyl)pyridin-2-yl)phenylcarbamoyl)benzylthio)benzamido)ethoxy)ethoxy)ethoxy)propanoic acid], the IC50 is 1 to 7.94 µM.

For the compound `CN(CCN1CCOCC1)C(=O)c1cccc(C(=O)Nc2ccc(N3CCC[C@H]4CCCC[C@@H]43)cc2-c2cc(C(=O)NCc3cccc(C(F)(F)F)c3)ccn2)c1` [Example 114], the IC50 was 1 to 7.94 µM.

With `O=C(O)CCSCc1cccc(C(=O)Nc2ccc(N3CCCCC3)cc2-c2cc(C(=O)NCc3cccc(C(F)(F)F)c3)c(Cl)cn2)c1` [Example 90], the IC50 is 10 to 31.6 µM.

As for `O=C(O)CCSCc1cccc(C(=O)Nc2ccc(N3CCCCC3)cc2-c2cc(NCc3ccc(Cl)c(C(F)(F)F)c3)ncn2)c1` [Example 3.5, 3-((3-((2-(6-((4-Chloro-3-(trifluoromethyl)benzyl)amino)pyrimidin-4-yl)-4-(piperidin-1-yl)phenyl)carbamoyl)benzyl)thio)propanoic acid], the half-inhibitory concentration (IC50) is 1 to 7.94 µM.

Compound `O=C(O)CCCc1ccc(SCc2cccc(C(=O)Nc3ccc(N4CCCCC4)cc3-c3cc(C(=O)NCc4cccc(C(F)(F)F)c4)ccn3)c2)cc1` [Example 8.9] gave an IC50 of 1 to 7.94 µM.

The compound `O=C(NCc1cccc(C(F)(F)F)c1)c1ccnc(-c2cc(N3CCCCC3)ccc2NC(=O)c2cccc(Cn3ccc4c(C(=O)O)cccc43)c2)c1` [Example 9.1, 1-(3-((4-(Piperidin-1-yl)-2-(4-((3-(trifluoromethyl)benzyl)carbamoyl)pyridin-2-yl)phenyl)carbamoyl)benzyl)-1H-indole-4-carboxylic acid] showed a concentration for half-maximal inhibition (IC50) of 1 to 7.94 µM.

Source of the values: patent US20140023611A1 (priority 2010, published 2014).
